These results are taken from patent US20180256537A1, “METHODS FOR SURVIVAL AND REJUVENATION OF DERMAL FIBROBLASTS USING PKC ACTIVATORS” (priority 2015, published 2018).

Data set [1] deals with PKC. The following applies: Table 1, bryologs; read-out: PKC Affin; cited from earlier work.
Data set [2] relates to Erk1/2. The data set can be described thus: Immunoblot analysis of Erk activation in serum-deprived fibroblasts. It is filed as cell-based, human. How it is done: (§1) Primary skin fibroblasts isolated from skin biopsies were maintained in Dulbecco's Modified Eagle Medium (DMEM) with low glucose (Invitrogen, Grand Island, N.Y.) supplemented with 10% FBS in 6-well culture dishes (37° C., 5% CO2, 90% humidity) until the cells reached 90-100% confluence. Cells were cultured in completely serum-free medium to simulate stress conditions. After culture in serum-free media for 24 hours, cells were treated with vehicle, 0.3 nM bryostatin1, or 5 nM picolog. […] Nanomolar concentrations of picolog were previously found to be effective for cellular activation (Khan et al, 2009). The condition of the cultured skin fibroblasts was monitored with an inverted cell culture microscope (Westover Digital AMID Model 2000, Westover Scientific, Bothell, Wash.), controlled by a computer and images were captured with image acquisition software (Micron 2.0.0, Westover Scientific).
(§2) Protein lysates (20 μg of protein each) were boiled in 2× Laemmli buffer for 10 min and separated using a 10% […] Tris-Glycine gel (or 4-20% gradient Tris-Glycine gel for caspase-8). […] Signal intensities of the images were recorded in the ImageQuant RT-ECL (GE Life Sciences, Piscataway, N.J.) and densitometric quantification was performed using the IMAL software (Blanchette Rockefeller Neurosciences Institute, Morgantown, W. Va.). […]
A general note: In western blotting, separated proteins are transferred to a membrane and probed.

In data set [3] the test system is human skin equivalents (HSEs). The data set can be described thus: Cell survival within human skin equivalents (HSEs). The class given is cell-based. How it is done: The Clonetics™ keratinocyte system containing normal adult human epidermal keratinocytes (NHEK) was used as source of epidermal keratinocytes (Lonza, Walkersville, Md.). Human adult epidermal keratinocyte cells were cultured in keratinocyte basal medium supplemented with appropriate growth factors (Clonetics KGM-Gold™ BulletKit™ [cat#00192060] contains one 500 ml bottle of keratinocyte basal medium-gold supplemented with bovine pituitary extract (BPE), 2 ml; hEGF, 0.5 ml; insulin, 0.5 ml; hydrocortisone, 0.5 ml; transferrin, 0.5 ml; epinephrine, 0.25 ml; GA-1000, 0.5 ml) in T25 culture flasks in an incubator at 37° C., 5% CO2, and 90% humidity. The growth medium was changed the day after seeding and every other day thereafter. Keratinocytes were used up to 18 population doublings. All cell preparations tested negative for mycoplasma, bacteria, yeast, and fungi. The condition of the skin keratinocytes was monitored with an inverted cell culture microscope (Westover Digital AMID Model 2000, Westover Scientific), controlled by a computer and images were captured using image acquisition software (Micron 2.0.0, Westover Scientific).
HSEs have been used commercially as clinical skin substitutes (Orcel® from FortiCell Bioscience, Englewood Cliffs, N.J.; FDA approved in 2001/2008; Apligraf® from Genzyme Tissue Repair Corporation, Cambridge, Mass., FDA approved in 2007) and as in vitro models for skin biochemical tests and toxicity tests (Mertsching et al, 2008; Zhang and Michniak-Kohn, 2012). We engineered an HSE composed of both epidermal and dermal layers; keratinocytes and fibroblasts were utilized to prepare the bilayer structures (Shevchenko et al, 2010). Dermal fibroblasts were cultured on a 6-well collagen-coated surface (Biocoat Cell Environment, Becton Dickinson, Bedford, UK) or BD BIOCOAT™ plates (BD Biosciences, San Jose, Calif.). Fibroblast cells were maintained in DMEM with low glucose (Invitrogen) supplemented with 10% FBS, and were grown to 100% confluence. Culture medium was removed and the cells were washed three times with DMEM (without serum) to remove all growth factors. Previously cultured epidermal keratinocytes were added to the fibroblasts as the second layer (FIG. 1). […] The condition of the HSEs was monitored with an inverted cell culture microscope (Westover Digital AMID Model 2000, Westover Scientific), controlled by a computer and images were captured via image acquisition software (Micron 2.0.0, Westover Scientific).

The test system of another data set is caspase-8. The data set can be described thus: Immunoblot analysis of caspase-8 expression in dermal fibroblasts. The class given is cell-based, human. How it is done:
as §1, §2

The test system of data set [4] is matrix metalloproteins 1, 3, 9, 10 and 11 (MMP's). The conditions noted are these: cited from earlier work.
In data set [5] the test system is human skin fibroblasts. The data set can be described thus: Protection of human skin fibroblasts under serum starvation (microscopy). The conditions noted are these: for viability and cellular integrity, with or without Erk inhibitor: serum deprived culture 5 days. The class given is cell-based. How it is done:
Skin fibroblast samples AG09555 (isolated and banked from a healthy person) and AG04560 (isolated and banked from a healthy person; Aging Cell Culture Repository of the National Institute on Aging) were obtained from the Coriell Institute for Medical Research (Camden, N.J.). Fresh fibroblasts were isolated from a skin punch biopsy (2-3 mm, upper arm) from a healthy subject (0078F45). The skin biopsy was conducted by qualified personnel under the supervision of Dr. Shirley Neitch with IRB approval of Marshall University (Huntington, W. Va.). All subjects signed informed consent forms under Marshal University rules and regulations. The method for isolating fibroblasts from skin biopsies was similar to the method previously described (Zhao et al, 2002; Khan and Alkon, 2006).
as §1

For data set [6] the following is noted: cited from earlier work.
For data set [7] the following is noted: cited from earlier work. The source holds these as a separate data set.
Data set [8] deals with PKC. The conditions noted are these: cited from earlier work.
Data set [9] has as its target PKC. The following applies: [3H] phorbol dibutyrate competition; cited from earlier work.
Data set [10] relates to squamous cell carcinoma and melanoma. The conditions noted are these: used topically; cited from earlier work.
For data set [11], the system named is Erk1/2. The following applies: RasGRP3-dependent manner; cited from earlier work.
The next data set has as its system NCI 60 cell line screen. The following applies: cited from earlier work.
Data set [12] has as its system human skin fibroblasts. The data set can be described thus: Cell viability test by MTT assay. It is filed as cell-based. The conditions noted are these: 5 nM, serum starvation 15 days, versus untreated cells. How it is done: as §1
Cell viability assay was conducted by measuring 3-(4,5-dimethylthiazol-2-yl)-2,5-diphenyltetrazolium (MTT) bromide dye absorbance. After treatment, cells were labeled with MTT and dissolved by adding SDS-HCl solution to each well and mixing thoroughly with a pipette tip. Absorbance was read at 570 nm using a microplate reader. Data were presented in terms of relative cell viability.
On the technique in general: Formazan colour is commonly taken as a measure of viable cells.

The next data set has as its target protein kinase C. The following applies: (−)-enantiomer; cited from earlier work.

Like-named read-outs stand apart in the source and are kept apart here.

For `CCCCCCCC(=O)O[C@H]1/C(=C/C(=O)OC)C[C@H]2C[C@H](CO)OC(=O)C[C@H](O)C[C@@H]3CCC[C@H](C[C@@H]4CCO[C@H](/C=C/C(C)(C)[C@]1(O)O2)O4)O3` [Analog 1], at PKC [1], the Ki was 0.25 nM.

For `CCC/C=C/C=C/C(=O)O[C@H]1/C(=C/C(=O)OC)C[C@H]2C[C@H]([C@@H](C)O)OC(=O)C[C@H](O)C[C@@H]3C[C@H](OC(C)=O)C(C)(C)C(O)(C[C@@H]4C/C(=C/C(=O)OC)C[C@H](/C=C/C(C)(C)[C@]1(O)O2)O4)O3` [Bryostatin-1], the “activation of Erk1/2 (p-Erk/Erk)” value in the data set on Erk1/2 [2] (0.3 nM, serum-free conditions) was “induced activation of Erk1/2”. The “protective effect in HSEs over time” value in data set [3] (9 days versus 12 days in culture) is on record as “decreases as a function of time”. Besides, the “fibroblast survival and viability in HSEs versus untreated” value in data set [3] (single dose and two dose treated HSEs) is “significantly greater”. Moreover, the “fibroblast cell death in HSEs” value in data set [3] (single treatment 0.3 nM, versus untreated HSEs) is “showed fewer dead fibroblast cells overall”. Besides, in [3] (two doses (0.3 nm) versus single 0.3 nM dose), the “survival of fibroblast cells in HSEs, two doses versus single dose” value is reported as “greater than fibroblasts in HSEs receiving a single 0.3 nM dose”. Also, in the data set with caspase-8 (after 3 days of treatment), the “caspase-8 expression levels, time course” value is reported as “greatest decrease”. Further, the “caspase-8 expression levels in cell lysate” value in the data set on caspase-8 (treated versus control fibroblasts) is on record as “reduced expression levels of caspase-8”. Besides, in [4], the “production of matrix metalloproteins 1, 3, 9, 10 and 11” value is “inhibits the production”. Besides, the “cellular integrity of freshly isolated fibroblasts” value in the data set with human skin fibroblasts [5] (0.3 nM, 5 days serum-free, 6-well plates) was “healthy and appear to be normal”. In addition, the “percentage of viable fibroblasts” value with human skin fibroblasts [5] (0.3 nM, 5 days serum-free, treated versus control group) is “lower percentage of viable fibroblast in the control group”. In the data set with human skin fibroblasts [5] (0.3 nM, 15 days serum free culture), the “loss of dermal fibroblast cells” value is recorded as “no significant loss of dermal fibroblast cells”. Besides, the “structural integrity and number of viable cells” value with human skin fibroblasts [5] (0.3 nM, 35 days serum free culture, versus control group) is “greater structural integrity and a higher number of live, viable cells”. In the data set on human skin fibroblasts [5] (25 days serum-starved), the “cellular integrity of collagen matrix supported fibroblasts” value was “maintains the cellular integrity”. The “viability and cellular integrity, with or without Erk inhibitor” value in the data set on human skin fibroblasts [5] was “showed the greatest viability and good cellular integrity”. For the same molecule, in the data set on human skin fibroblasts [5] (sub-nanomolar amounts, 20 days serum starved), the “survival of banked skin fibroblasts” value is given as “prevented the death of human skin fibroblasts”. Besides, the toxicity entry in [6] (20 μg/week) is “no toxicity”. In addition, the adverse effect result in data set [6] (more than 35 μg/week) was “may be associated with muscle pain”.

`CCC/C=C/C=C/C(=O)O[C@H]1/C(=C/C(=O)OC)C[C@H]2C[C@H]([C@@H](C)O)OC(=O)C[C@H](O)C[C@@H]3C[C@H](OC(C)=O)C(C)(C)[C@](O)(C[C@@H]4C/C(=C/C(=O)OC)C[C@H](/C=C/C(C)(C)[C@]1(O)O2)O4)O3` [Bryostatin-1]: in data set [7] (after a single injection), the “time detectable in the blood” value is given as 14 days. Besides, in data set [7] (blood), the “half-life (t1/2) in the blood stream” value is 1 h. The “crossing of the blood-brain barrier” value in data set [7] (in vivo) is on record as “crosses the blood-brain barrier”. Moreover, the “share of initial dose in the blood” value in [7] (intravenous injection, at 100 hrs) is given as 1%.

Consider `CCC1CC1CC1CC1CC1CC1CC1CC1CC1CC1CC1CC1CCC(=O)OC` (centres unmarked) [DHA-CP6, cyclopropanated docosahexaenoic acid methyl ester], for which the effective concentration in the data set with PKC [8] is reported as 10 nM.

`CC1=C[C@]23C(=O)[C@@H](C=C(COC(=O)c4ccccc4)[C@@H](O)[C@]2(O)[C@H]1OC(=O)c1ccccc1)[C@H]1[C@@H](C[C@H]3C)C1(C)C` [Ingenol 3,20-dibenzoate]: the Ki at PKC [9] is 240 nM.

Consider `C/C=C(/C)C(=O)O[C@H]1C(C)=C[C@]23C(=O)[C@@H](C=C(CO)[C@@H](O)[C@]12O)[C@H]1[C@@H](C[C@H]3C)C1(C)C` [Ingenol-3-angelate], for which the antitumor activity result in data set [10] is “exhibits antitumor activity”.

In the case of `CC1=CC[C@H](C)C(C)(C)[C@@H]1/C=C/C(C)=C/CC[C@@]1(CO)[C@H](CCCO)/C(=C(/C)C=O)CC[C@]1(C)O` [Iripallidal], the “phosphorylation of Erk1/2” value with Erk1/2 [11] is “induces phosphorylation of Erk1/2”. In addition, the “GI50 (concentration required to inhibit growth by 50%)” value in the data set on NCI 60 cell line screen was “micromolar to nanomolar range”.

`COc1cccc(-c2cc(=O)c3ccccc3o2)c1N` [PD98059]: the “effect on bryostatin-1 induced Erk activation” value in the data set with Erk1/2 [2] (PD98059 30 μM with bryostatin-1) is “significantly blocked”. Moreover, the “viability and cellular integrity, with or without Erk inhibitor” value in the data set with human skin fibroblasts [5] is on record as “lowered the cell protective effects of bryostatin-1”.

`CCCCCCCC(=O)O[C@H]1/C(=C/C(=O)OC)CC2C[C@H](CO)OC(=O)C[C@H](O)C[C@@H]3CCC[C@H](C[C@@H]4CCO[C@H](/C=C/C(C)(C)[C@]1(O)O2)O4)O3` [picolog]: in the data set with human skin fibroblasts [12], the “relative cell viability (MTT)” value is reported as “increased the relative viability of fibroblast cells”. The “cell survival of human skin fibroblasts” value with human skin fibroblasts [5] (5 nM, serum free, 15 days) is “increased cell survival”.

One may read the EC50 as the concentration needed to bring the measured effect to its halfway point. Turning to Octylindolactam V, the EC50 on protein kinase C was 29 nM.
